Here are results for 2 molecules from article PMC10707468, “Pharmacokinetics of Novel Dopamine Transporter Inhibitor CE-123 and Modafinil with a Focus on Central Nervous System Distribution” (International Journal of Molecular Sciences, 2023).

Series [1] can be described thus: In vivo rat tissue biodistribution / neuroPK study, 4 h intravenous constant infusion. To be noted: rat; for Kp at 4 h / concentration at 4 h: Sprague-Dawley; for Kp at 4 h: brain (whole brain homogenate) relative to plasma, steady state, read-out: Total brain-to-plasma concentration ratio, Kp,brain; for concentration at 4 h: intravenous, 20 mg/kg; for order of Kp,tissue from highest to lowest: total tissue-to-plasma concentration ratio. More on the design: species or system Sprague-Dawley rats. As for the experimental part:
The results are summarized in Figure 4 and Table S2 within Supplementary Materials.
In order to minimize the usage of animals and gain high confidence in the tissue distribution, a 4 h constant intravenous infusion study was designed based on the systemic pharmacokinetic parameters determined elsewhere. The catheters were surgically implanted a day before the PK experiment. The rats (n = 3 per compound) were then individually placed into a CMA 120 system (CMA, Solna, Sweden). […] A dose of 20 mg/kg was administered as a combination of an initial short 10 min infusion as a loading dose followed by a constant infusion up to 4 h, targeting a steady-state total plasma concentration of around 1000 ng/mL for each compound (based on the pilot study results). Blood was collected into heparinized Eppendorf tubes via a femoral artery catheter at 0 (before infusion starts) 1, 2, 3, and 4 h after the infusion started and immediately centrifuged at 10,000 rpm for 5 min at +4 °C. Plasma was then collected and kept at −20 °C. At 4 h, the rats were anesthetized via inhalation of 2.5% isoflurane (Abbot Scandinavia, Solna, Sweden), balanced with 1.5 L/min oxygen, after which the terminal blood and tissue samples were collected. […] The tissue samples (brain, spinal cord, liver, and kidney) were rapidly removed, pre-weighed into a 2 mL hard tissue homogenizing tube with mini-beads, and subsequently homogenized in 2 volumes of MQ water using a 4-Place Bead Mill Homogenizer (VWR, Stockholm, Sweden) at the maximal speed for 2 min and thereafter kept at +4 °C. The plasma and tissue homogenate samples were stored at −20 °C until LC–MS analysis.
For all the rat plasma and CSF samples, an aliquot of 50 µL was spiked with 50 µL of 4% PA in water containing the IS solution to disrupt the drug–protein binding. For all rat tissue samples (brain, spinal cord, liver, and kidney), an aliquot of 50 µL was spiked with 50 µL ice-cold ACN containing the IS solution for protein precipitation. The samples were vortexed and spun down for 10 min (3000× g, 4 °C) and 25 µL of clear supernatant was diluted with 225 µL 0.1% FA in water to achieve 10% of ACN in the solution. SPE clean-up was performed using an Oasis PRiME HLB µElution 96-well plate, 3 mg (Waters Corporation, Vienna, Austria). The SPE cartridges were preconditioned and equilibrated with 1 × 200 µL ACN and 0.1% FA in water each. The samples were loaded onto the cartridges and washed with 2 × 200 µL 0.1% FA in water and 1 × 200 µL ACN/0.1% FA in water 10:90 (v:v). The analytes were eluted from the SPE cartridge into a collection plate with 2 × 25 µL ACN/0.1% FA in water 70:30 (v:v). All the samples were diluted with 50 µL of 0.1% FA in water and 10 µL of sample was injected onto the LC–HRMS system.
All samples, blanks, standards, and quality control samples in the respective matrices were analyzed on a UHPLC system (Dionex UltiMate 3000 RSLC series system, Thermo Fisher Scientific, Inc., Dreieich, Germany) coupled with a high-resolution mass spectrometer (maXis HD Q-TOF, Bruker Daltonics, Bremen, Germany) equipped with a heated electrospray ionization (ESI) source. Reversed-phase chromatographic separation was performed on a Kinetex Phenyl-Hexyl column (2.6 µm, 2.1 × 50 mm, Phenomenex, Torrance, CA, USA), equipped with a precolumn (2.6 µm, Phenomenex, Torrance, CA, USA), at a flow rate of 0.4 mL/min. Eluent A was water containing 0.1% FA and eluent B ACN. A multi-step gradient was optimized as follows: the initial mobile phase composition (5% eluent B) was held constant for 1 min, followed by a linear increase to 30% eluent B until minute 1.5, to 40% eluent B until minute 5.5, and to 95% eluent B until minute 6. After a hold time of 2 min, the column was re-equilibrated for 2.5 min at the initial conditions (5% eluent B). The column compartment and the autosampler were maintained at 40 °C and at 8 °C, respectively. […]

Series [2] has as its system DAT. As to conditions: read-out: Half-maximal inhibitory concentration, IC50, cited from earlier work.
Series [3] has as its system cerebEND in vitro model of the blood–brain barrier. To be noted: 100 µM CE-123 and modafinil, Transwell cerebEND, blank inserts deducted; cited from earlier work.
Series [4] is described as follows: Equilibrium dialysis, plasma protein binding. It counts as in vitro ADME, rat. As to conditions: for free (unbound) in plasma / Fraction unbound in plasma, fu,plasma: rat plasma; for Fraction unbound in plasma, fu,plasma / fraction unbound at 5 h, 10 µM: 10 µM, 5 h, 37 °C, plasma with 10% DMF; for fraction unbound at 5 h, 10 µM: rat, undiluted rat plasma containing 10% DMF, pH 7.4, rat plasma, read-out: Fraction unbound in plasma, fu,plasma. As for the experimental part: A Teflon 96-well plate (model HTD96b, HTDialysis LLC, Gales Ferry, CT, USA) was used in all tissue-binding experiments. Th evaluation of PPB was determined according to van Liempd et al. (2011) and BTB according to the previously published protocols. […] The whole brain tissue from three rats was individually homogenized in 9 volumes of phosphate-buffered saline (PBS), pH 7.4. […] Then, 100 µL of spiked plasma or brain tissue homogenate in triplicate was dialyzed against an equal volume of PBS, pH 7.4, for 5 h at 37 °C and 200 rpm. Furthermore, 50 µL was taken from both sides of the membrane at the end of incubation. The unbound fraction of the compounds in the plasma (fu,plasma) or in the diluted (D) brain homogenate (fu,hD) was calculated according to the following equation:(1) fu,plasma or fu,hD=Cbuffer/Ctissue where Cbuffer represents the concentration of the compound measured in the buffer and Ctissue is the concentration measured in the plasma or brain tissue homogenate. Due to dilution, fu,hD is usually higher than the actual fu,brain. Thus, fu,hD was corrected for the dilution factor (D), which is in this case 10 times. (2) fu,brain=fu,hD/D+fu,hD−D·fu,hD
(Equilibrium dialysis compares concentrations on both sides of a semipermeable membrane.)

[5] abbreviates: 4 h iv constant infusion 20 mg/kg.
The mark [6] stands for this setting: brain, 4 h iv constant infusion 20 mg/kg, n=3, read-out: Total concentration in brain.
Setting [7] is: kidney, 4 h iv constant infusion 20 mg/kg, n=3, read-out: Total concentration in kidney.
[8] abbreviates: liver, 4 h iv constant infusion 20 mg/kg, n=3, read-out: Total concentration in liver.
Setting [9] is: plasma, 4 h iv constant infusion 20 mg/kg, n=3, read-out: Total concentration in plasma.
[10] abbreviates: plasma, 4 h iv constant infusion 20 mg/kg, read-out: Total drug concentration in plasma, Ctot,plasma.
Setting [11] is: plasma, 4 h iv constant infusion 20 mg/kg, read-out: Total steady-state plasma concentration, Cplasma,ss.
The mark [12] stands for this setting: plasma, mean, in vivo study, 4 h iv infusion 20 mg/kg, read-out: Unbound-drug concentration in plasma, Cu,plasma.
The mark [13] stands for this setting: spinal cord, 4 h iv constant infusion 20 mg/kg, n=3, read-out: Total concentration in spinal cord.

Where “and” joins values, the source holds several entries; their conditions need not be identical. Equal entries are not always repeated. Where two headings read alike, the source gives them in different places.

Usually fraction unbound stands for the share of the substance not bound to proteins or other matrix.

Consider `[O-][S@@+](Cc1cncs1)C(c1ccccc1)c1ccccc1` [S-CE-123], for which the Kp at 4 h in series [1] (setting [5]) was 0.61 ± 0.1. Also, the concentration at 4 h was determined as 820 ng/g in series [1] (setting [6]); 1780 ng/g in series [1] (setting [7]); 2730 ng/g in series [1] (setting [8]); 1050 ng/mL in series [1] (setting [9]); 3.35 µM in series [1] (setting [10]); 4.15 ± 2.2 µM in series [1] (setting [11]). Further, the figures for the concentration at 4 h in series [1] (setting [12]) and in series [1] (setting [13]) were 0.839 µM and 1240 ng/g, respectively. For the same molecule, in series [1] (cisterna magna, 4 h iv infusion 20 mg/kg, single rats), the “Total concentration in CSF” value was 570 ng/mL and 104 ng/mL. Also, the “order of Kp,tissue from highest to lowest” value in series [1] is on record as “liver > kidneys > spinal cord > brain”. The IC50 in series [2] (ref Kristofova et al. 2018 [36]) was 4.6 µM. The “Pe (permeability coefficient)” value in series [3] was 50 ×10⁻⁶ cm/s. In addition, the “free (unbound) in plasma” value in series [4] came out at 25%. In series [4], the “Fraction unbound in plasma, fu,plasma” value was 0.252 ± 0.023 unitless. Further, in series [4], the fraction unbound at 5 h, 10 µM was determined as 0.25.
Turning to `NC(=O)C[S@@+]([O-])C(c1ccccc1)c1ccccc1` [R-modafinil, reference compound], the Kp at 4 h in series [1] (setting [5]) stood at 0.29 ± 0.013. The concentration at 4 h in series [1] (CSF, cisterna magna, 4 h iv infusion 20 mg/kg, single rats, read-out: Total concentration in CSF) amounted to 784 ng/mL; in series [1] (setting [6]) it was 448 ng/g; in series [1] (brain, single sample, rat brain after 4 h iv infusion 20 mg/kg, read-out: concentration in rat brain sample (Figure S4 chromatogram)), 471 ng/mL; in series [1] (setting [7]) it was 2540 ng/g; in series [1] (setting [8]) it was 2170 ng/g; in series [1] (setting [9]) it was 1010 ng/mL. Also, the concentration at 4 h in series [1] (setting [10]) came out at 3.69 µM; in series [1] (setting [11]) it was 5.57 ± 0.649 µM; in series [1] (setting [12]), 2.91 µM; in series [1] (setting [13]), 733 ng/g. Also, the “order of Kp,tissue from highest to lowest” value in series [1] is “kidneys > liver > spinal cord > brain”. Moreover, the IC50 in series [2] (ref Loland et al. 2012 [27]) is […]. The “Pe (permeability coefficient)” value in series [3] was 38.3 ×10⁻⁶ cm/s. In addition, the “free (unbound) in plasma” value in series [4] came out at 80%. For the same molecule, the “Fraction unbound in plasma, fu,plasma” value in series [4] is 0.797 ± 0.15 unitless. The fraction unbound at 5 h, 10 µM in series [4] worked out at 0.79.
